Bounds are passed on as bounds.

What all share (experiment): KinomeScan kinase panel, single concentration 10 µM
Assay type in all cases: binding

In assay [1] the target is T1, KinomeScan kinase panel (Homo sapiens, UniProt Q12866).
T1 construct: purchased DiscoveRx (KinomeScan)
T1 sequence (Q12866 21-999): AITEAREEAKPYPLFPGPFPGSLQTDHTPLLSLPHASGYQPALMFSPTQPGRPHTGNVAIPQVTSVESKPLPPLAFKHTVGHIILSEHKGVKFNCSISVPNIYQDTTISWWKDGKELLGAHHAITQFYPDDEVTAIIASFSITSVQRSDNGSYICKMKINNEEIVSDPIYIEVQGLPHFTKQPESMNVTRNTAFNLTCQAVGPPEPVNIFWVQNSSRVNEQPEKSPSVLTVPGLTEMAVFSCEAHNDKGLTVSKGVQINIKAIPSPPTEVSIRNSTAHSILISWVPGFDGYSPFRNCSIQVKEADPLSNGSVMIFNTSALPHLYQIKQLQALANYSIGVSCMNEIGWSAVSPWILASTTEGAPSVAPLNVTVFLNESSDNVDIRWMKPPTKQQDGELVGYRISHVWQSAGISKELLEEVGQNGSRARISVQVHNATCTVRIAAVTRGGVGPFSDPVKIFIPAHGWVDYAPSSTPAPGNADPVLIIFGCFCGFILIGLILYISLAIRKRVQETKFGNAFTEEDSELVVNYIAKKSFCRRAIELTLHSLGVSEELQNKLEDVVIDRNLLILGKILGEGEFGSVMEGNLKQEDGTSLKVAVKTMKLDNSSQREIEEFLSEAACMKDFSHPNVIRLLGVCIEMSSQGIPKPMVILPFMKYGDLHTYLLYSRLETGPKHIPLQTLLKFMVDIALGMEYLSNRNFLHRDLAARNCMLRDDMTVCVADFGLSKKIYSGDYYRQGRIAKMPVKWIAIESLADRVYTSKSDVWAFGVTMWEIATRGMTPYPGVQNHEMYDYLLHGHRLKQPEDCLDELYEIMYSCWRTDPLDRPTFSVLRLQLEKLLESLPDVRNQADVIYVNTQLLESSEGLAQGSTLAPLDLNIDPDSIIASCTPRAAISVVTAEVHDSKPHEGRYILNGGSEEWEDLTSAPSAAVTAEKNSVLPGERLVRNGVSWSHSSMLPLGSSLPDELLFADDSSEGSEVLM
The note with it: MERTK, 10 µM; read-out: score (%).

Assay [2] concerns the target T2, KinomeScan kinase panel (Homo sapiens, UniProt Q9UQB9).
T2 construct: purchased DiscoveRx (KinomeScan)
T2 sequence (Q9UQB9 1-309): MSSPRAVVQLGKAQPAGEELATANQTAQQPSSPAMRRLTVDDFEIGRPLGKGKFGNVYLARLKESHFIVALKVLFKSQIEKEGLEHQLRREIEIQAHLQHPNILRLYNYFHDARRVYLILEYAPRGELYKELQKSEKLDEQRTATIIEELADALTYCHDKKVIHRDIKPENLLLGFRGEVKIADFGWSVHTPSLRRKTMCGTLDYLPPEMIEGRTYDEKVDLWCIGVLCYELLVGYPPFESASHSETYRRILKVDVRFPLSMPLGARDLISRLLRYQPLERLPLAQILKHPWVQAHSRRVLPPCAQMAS
The note with it: AURKC, 10 µM; read-out: score (%).

The target in assay [3] is T3, KinomeScan kinase panel (Homo sapiens, UniProt O94768).
T3 construct: purchased DiscoveRx (KinomeScan)
T3 sequence (O94768 1-372): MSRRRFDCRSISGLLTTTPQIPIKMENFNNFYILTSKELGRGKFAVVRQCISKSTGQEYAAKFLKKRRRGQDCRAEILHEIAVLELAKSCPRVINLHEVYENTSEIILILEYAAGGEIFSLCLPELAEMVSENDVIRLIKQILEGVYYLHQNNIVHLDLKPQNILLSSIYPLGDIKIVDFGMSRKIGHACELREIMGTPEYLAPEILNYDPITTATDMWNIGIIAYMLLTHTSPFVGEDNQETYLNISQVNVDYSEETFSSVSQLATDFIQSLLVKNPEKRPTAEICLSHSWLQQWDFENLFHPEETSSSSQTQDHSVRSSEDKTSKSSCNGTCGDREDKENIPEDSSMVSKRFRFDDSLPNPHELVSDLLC
As to conditions: DRAK2, 10 µM; read-out: score (%).

In assay [4] the target is T4, KinomeScan kinase panel (Homo sapiens, UniProt Q08881).
T4 construct: purchased DiscoveRx (KinomeScan)
T4 sequence (Q08881 1-620): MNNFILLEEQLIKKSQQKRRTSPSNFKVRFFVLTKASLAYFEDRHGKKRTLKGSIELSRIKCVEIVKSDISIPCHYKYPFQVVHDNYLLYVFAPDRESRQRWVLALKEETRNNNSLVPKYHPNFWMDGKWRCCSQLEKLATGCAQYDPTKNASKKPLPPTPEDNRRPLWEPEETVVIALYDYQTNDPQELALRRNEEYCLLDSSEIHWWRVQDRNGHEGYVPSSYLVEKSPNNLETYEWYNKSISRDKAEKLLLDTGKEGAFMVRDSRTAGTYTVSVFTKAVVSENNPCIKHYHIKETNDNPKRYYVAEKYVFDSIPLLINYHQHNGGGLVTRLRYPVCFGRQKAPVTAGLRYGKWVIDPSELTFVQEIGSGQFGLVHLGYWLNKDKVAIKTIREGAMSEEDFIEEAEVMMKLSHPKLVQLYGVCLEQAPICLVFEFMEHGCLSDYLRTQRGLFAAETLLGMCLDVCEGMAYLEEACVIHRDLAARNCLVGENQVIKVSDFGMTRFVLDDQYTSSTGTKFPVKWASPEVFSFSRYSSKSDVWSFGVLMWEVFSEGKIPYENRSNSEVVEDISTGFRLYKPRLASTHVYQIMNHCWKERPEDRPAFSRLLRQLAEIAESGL
As to conditions: ITK, 10 µM.

Consider `CCN1CCN(Cc2ccc(NC(=O)c3ccc(C)c(NC(=O)c4cncc(-c5cccs5)c4)c3)cc2C(F)(F)F)CC1` [ALW-II-41-27], for which the remaining binding at 10 µM on KinomeScan kinase panel [1] is > 30%; on KinomeScan kinase panel [2], > 30%; at KinomeScan kinase panel [3], 31%. Besides, the “score (%)” value at KinomeScan kinase panel [4] is recorded as 8.6%.
For `CCN1CCN(Cc2ccc(NC(=O)c3ccc(C)c(/C=C/c4cnc5[nH]ccc5c4Cl)c3)cc2C(F)(F)F)CC1` [HG-6-63-01, (E)-3-(2-(4-chloro-1H-pyrrolo[2,3-b]pyridin-5-yl)vinyl)-N-(4-((4-ethylpiperazin-1-yl)methyl)-3-(trifluoromethyl)phenyl)-4-methylbenzamide], the remaining binding at 10 µM on KinomeScan kinase panel [1] is > 30%; at KinomeScan kinase panel [2], 0.65%; at KinomeScan kinase panel [3], 1.6%. Further, the “score (%)” value on KinomeScan kinase panel [4] worked out at 21%.
Take `CCN1CCN(Cc2ccc(NC(=O)c3ccc(C)c(C#Cc4cccnc4)c3)cc2C(F)(F)F)CC1` [XMD15-44]: the values for the remaining binding at 10 µM on KinomeScan kinase panel [1], on KinomeScan kinase panel [2] and at KinomeScan kinase panel [3] were 5.2%, 13% and > 30%, respectively. The “score (%)” value on KinomeScan kinase panel [4] was “nb (Hits values higher than 30% were considered negative (no binding: nb))”.

Values taken from publication PMC4457528, “Identification of Novel Small Molecule Inhibitors of Oncogenic RET Kinase” (PLoS ONE, 2015).
